Measurements published in patent US20250057994A1, “LABELED COMPOUNDS AND CALCIUM SENSING RECEPTOR LIGANDS FOR IMAGING AND USES THEREOF” (The University of North Carolina at Chapel Hill, priority 2021, published 2025).

What was measured:
[1] = Octanol water partition coefficient (Log P); type: physicochemical; details: 1-octanol/water; 1-octanol and water system, average value
Source text: Determination of Octanol water Partition Coefficient (Log P).

[2] = In vitro stability of 18F-cinacalcet (incubation, HPLC purity); type: physicochemical
Protocol: (§1) In a non-human primate imaging experiment, the blood samples were drawn from vein at 1 and 3 h post injection.
(§2) Stability of [^18F]F-ZW-cinacalcet. The photoredox labeling method allows access to a new category of PET agent bearing a SP^2-F bond. [^18F]F-ZW-cinacalcet has improved stability compared to the CF3 labeling method. The formulated [^18F]F-ZW-cinacalcet was first incubated in PBS (Phosphate buffered saline containing 8% EtOH), and aliquots were taken for analysis at different time points. […] Subsequently, the in vivo stability of [^18F]F-ZW-cinacalcet was tested in a non-human primate. After injection, a blood sample was collected at 1 and 3 h time points. […] Because the imaging was finished within the first hour, the metabolites were not determined in this study

[3] = In vivo stability in non-human primate blood samples; details: for In vivo stability in blood: non-human primate
Protocol: as §1, §2

CSR [4] = target: T1, CSR (Rattus norvegicus, UniProt P48442); assay: Small animal PET/CT imaging of parathyroid in rats (static and dynamic); type: in vivo
T1 construct: Normal rats were used as an animal model for initial CSR agent imaging; from tissue; host or cells: rat parathyroid (also lung and other tissues), in vivo and excised sections
T1 sequence (P48442 20-1079): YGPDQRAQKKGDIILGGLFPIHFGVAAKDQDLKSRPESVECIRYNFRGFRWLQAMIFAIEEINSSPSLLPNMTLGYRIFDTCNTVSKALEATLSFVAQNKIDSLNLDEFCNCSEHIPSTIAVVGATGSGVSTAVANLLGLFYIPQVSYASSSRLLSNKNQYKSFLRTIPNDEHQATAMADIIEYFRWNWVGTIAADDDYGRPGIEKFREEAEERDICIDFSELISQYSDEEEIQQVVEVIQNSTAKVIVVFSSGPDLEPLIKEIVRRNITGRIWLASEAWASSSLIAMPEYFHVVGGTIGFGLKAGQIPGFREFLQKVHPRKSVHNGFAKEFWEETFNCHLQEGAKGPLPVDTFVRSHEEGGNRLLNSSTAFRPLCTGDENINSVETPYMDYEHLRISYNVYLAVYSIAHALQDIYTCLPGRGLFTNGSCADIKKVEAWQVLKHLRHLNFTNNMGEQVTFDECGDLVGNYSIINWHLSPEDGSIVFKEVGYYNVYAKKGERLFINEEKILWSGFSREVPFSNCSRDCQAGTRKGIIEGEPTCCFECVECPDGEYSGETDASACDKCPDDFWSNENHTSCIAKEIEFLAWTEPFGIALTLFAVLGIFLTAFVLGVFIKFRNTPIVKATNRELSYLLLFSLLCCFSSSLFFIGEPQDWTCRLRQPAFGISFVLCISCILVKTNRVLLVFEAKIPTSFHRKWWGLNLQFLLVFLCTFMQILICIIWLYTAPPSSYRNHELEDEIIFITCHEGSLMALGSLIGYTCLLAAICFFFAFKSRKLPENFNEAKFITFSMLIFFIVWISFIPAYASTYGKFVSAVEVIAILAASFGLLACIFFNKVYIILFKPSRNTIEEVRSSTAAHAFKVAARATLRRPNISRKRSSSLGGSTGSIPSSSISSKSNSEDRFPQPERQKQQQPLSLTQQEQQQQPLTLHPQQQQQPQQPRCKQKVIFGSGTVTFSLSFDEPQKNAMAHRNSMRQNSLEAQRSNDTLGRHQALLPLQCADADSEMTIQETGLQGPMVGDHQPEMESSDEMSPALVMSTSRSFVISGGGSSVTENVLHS
Protocol: Normal rats were used as an animal model for initial CSR agent imaging. Surgical dissection of the mouse parathyroid gland is too technically difficult, in contrast to the rat which has approximately 10 times the body mass of a mouse. Analyses were performed by individuals with extensive experience on parathyroid identification for pathology. autoradiography, and microscope study. In brief, animals were anesthetized with isoflurane. For PET probes, dynamic PET imaging was performed after the administration of 1 to 2 mCi of tracer, and animals were imaged with 2 h dynamic scan. A CT scan was also obtained for anatomic registration and attenuation correction. Images were reconstructed to create representative dynamic images for the study (10 min epochs). These images were qualitatively graded to assess the visibility of the parathyroid gland against background tissues. PET kinetic modeling was also performed to evaluate the relative kinetics of uptake of the parathyroid gland compared to the thyroid and other tissues.
^18F-cinacalcet could detect parathyroid gland in rats by targeting CSR. Parathyroid gland are very small (3-5 mm in human) and generally below the detection limit of most imaging methods. The novel CSR PET agent ^18F-cinacalcet was injected in rat and small animal PET imaging was performed. […] In order to confirm the observed signal did come from the very small parathyroid gland instead of thyroid or other tissue, the rats were sacrificed and the localization of radioactivity in the gland tissue was evaluated by autoradiography coupled with pathology staining of neighboring slides.
Small animal-PET CT imaging of parathyroid in rodents. Because the parathyroid is rather small, rats were used instead of mice to evaluate the agent. Static PET scans were acquired in rats at 0.5 h, 1 h and 2 h post injection of [^18F]F-ZW-cinacalcet. Representative coronal PET images are shown in FIG. 15 panel A. Parathyroid could be visualized on the image at the early time point of 0.5 h with a radiotracer uptake of 0.28±0.16% ID/g and parathyroid/muscle ratio of 4.9±0.93.
Dynamic PET images of [^18F]F-ZW-cinacalcet in rats were acquired for 60 minutes. [^18F]F-ZW-cinacalcet accumulated into parathyroid at the earliest timepoints and peaked at about 7 min post injection (0.33±0.05% ID/g), followed by a gradual decline to 0.17±0.01% ID/g at 60 min post injection.
Uptake peaked at 2 min post injection (lung: 1.00±0.19% ID/g; heart: 0.95±0.14% ID/g), with similar kinetics until 10 min post injection. Then, the heart uptake dropped rapidly to 0.15±0.27% ID/g at 60 min post injection, whereas the lung uptake remained at a high level at 60 min post injection of 0.41±0.07% ID/g. In addition, the radiotracer was also observed entering into the brain with a stable uptake level of ˜0.2% ID/g.

CSR [5] = target: T1, CSR; assay: Autoradiography with matched CSR IHC staining of excised rat tissue; type: in vivo; details: rats
Protocol: After the imaging of each animal, the parathyroid glands were carefully dissected out and the uptake in parathyroid gland was measured, then subsequently evaluated pathologically to confirm the histology. Autoradiography was performed to study its distribution in gland area. Optical imaging guidance during the surgical procedures was also performed using the developed CSR PET-fluorescence probes. During excision, the surgeon also graded the visibility of the lesions with and without the use of fluorescence. Other critical organs, including the thyroid gland, nearby tissues, and major organs were also dissected out to evaluate the relative uptake within these organs. The localization of radioactivity in the gland tissue was also confirmed by autoradiography coupled with pathology staining of neighboring slides.
^18F-cinacalcet could detect parathyroid gland in rats by targeting CSR. […] In order to confirm the observed signal did come from the very small parathyroid gland instead of thyroid or other tissue, the rats were sacrificed and the localization of radioactivity in the gland tissue was evaluated by autoradiography coupled with pathology staining of neighboring slides.
Autoradiography and pathology. […] Quantitative analysis of autoradiography and IHC staining was expressed as a mean integrated density (Mean IntDen). […]

[6] = dynamic PET, 2 min post injection
[7] = dynamic PET, 60 min post injection
[8] = static PET, 0.5 h post injection

C[C@@H](NCCCc1cccc(C(F)(F)F)c1)c1ccc([18F])c2ccccc12 [[^18F]F-ZW-cinacalcet]
logP [1]: 1.95 ± 0.02 | In vitro stability, purity ([2]; 6 h time point): > 90% | Stability in PBS, purity ([2]; PBS containing 8% EtOH, 4 h post incubation): > 95% | Blood metabolic stability ([3]; Rhesus Macaque, overall judgement): acceptable stability for imaging applications | In vivo stability in blood ([3]; 1 h post injection): majority of the agent remained untouched | In vivo stability in blood ([3]; 1 h post injection, listed as 18F-cinacalcet): rather stable | In vivo stability in blood ([3]; 3 h post injection): hydrophilic metabolite was observed | In vivo stability in blood ([3]; 3 h post injection, listed as 18F-cinacalcet): significant metabolites are observed | Brain uptake, stable level (CSR [4]; dynamic PET): ~0.2 % ID/g | Heart uptake at peak (CSR [4]; [6]): 0.95±0.14 % ID/g | Lung uptake at peak (CSR [4]; [6]): 1.00±0.19 % ID/g | Muscle uptake (CSR [4]; dynamic PET, 20 min post injection): < 0.06 % ID/g | Heart uptake (CSR [4]; [7]): 0.15±0.27 % ID/g | Lung uptake (CSR [4]; [7]): 0.41±0.07 % ID/g | Parathyroid uptake (CSR [4]; [7]): 0.17±0.01 % ID/g | Parathyroid uptake at peak (CSR [4]; dynamic PET, about 7 min post injection): 0.33±0.05 % ID/g | Time of peak lung and heart uptake (CSR [4]; dynamic PET, post injection): 2 min | Time of peak parathyroid uptake (CSR [4]; dynamic PET, post injection): about 7 min | PET signal in neck area (CSR [4]; small animal PET): clearly demonstrated two hot spots | Parathyroid radiotracer uptake (CSR [4]; [8]): 0.28±0.16 % ID/g | Parathyroid/muscle ratio (CSR [4]; [8]): 4.9±0.93 | Parathyroid radioactivity (CSR [4]; static PET, 2 h time point): reverted to the background level | Parathyroid/thyroid ratio in autoradiography (Mean IntDen) (CSR [5]; excised tissue sections): 6.60±1.28 | Localization of radioactivity by autoradiography and pathology staining (CSR [5]; neighboring slides): correlated well with parathyroid gland
